Measurements taken from patent US20150307530A1, “NOVEL MUCOLYTIC AGENTS” (PARION SCIENCES, INC., priority 2012, published 2015).

What was measured:
[1] = DTNB assay: rate of disulfide bond reduction; format: biochemical; details: for DTNB reducing kinetics as a function of pH: pH range relevant for mucosal surfaces (pH 6.0-7.5); for DTNB reducing kinetics as a function of pH / reducing kinetic for DTNB reduction compared with NAC and DTT: FIG. 3; for reducing kinetic for DTNB reduction compared with NAC and DTT: comparison with thiol reducing agents
Description: FIG. 2. Spectrophotometric studies monitored formation of reduced DTNB over time. Reaction rates, generated using second order kinetics, for each compound were compared as a function of reducing agent to substrate (DTNB) concentration at pH 6.5.
FIG. 3. Spectrophotometric studies monitored formation of reduced DTNB over time. Reaction rates, generated using second order kinetics, for each compound were over a pH range relevant for mucosal surfaces.
Mucin Agarose Gel Western Blots: Reducing agent stock solutions are made up in 100 mM Potassium Phosphate and are buffered to pH 6.5. The reducing agent stocks are diluted into saliva samples (pH 6.5) to achieve the final desired reducing agent concentration. […] The reactions are quenched using at least a 2-fold excess of N-ethylmaleimide and/or hydrogen peroxide. A 5× concentrated sample loading buffer is diluted into the samples to achieve a 1× concentration (1×TAE, 5% glycerol, 0.1% SDS, Bromophenol Blue). Samples (50 ug) are analyzed by electrophoresis on 0.9% agarose gels using a buffer system consisting of 1×TAE/0.1% SDS. […] Unreduced and reduced Muc5B are visualized using a polyclonal antibody directed towards Muc5B and a Protoblot II AP System with stabilized substrate. […] Each compound solution (10 uL) is added apically to primary hBEs for 6 hrs. The hBEs are lysed in RIPA buffer supplemented with protease inhibitor cocktail (Roche) and 1 mM PMSF. The samples are normalized to contain the same total amount of protein followed by addition of 2×SDS sample buffer (100 mM Tris-HCl (pH6.8)/4% SDS/0.05% Bromophenol Blue/20% glycerol). Samples (20 […]g) are analyzed by electrophoresis on a 10% SDS-PAGE gel and transferred to a nitrocellulose membrane. BiP levels are visualized using a polyclonal antibody directed towards BiP and the LiCor Odyssey imaging detection system. Thapsigargin (TG, 2.5 µM) served as a positive control for BiP induction. DTNB ASSAY: This assay determines the rate which a mucolytic agent can reduce a disulfide bond using 5,5-Dithiobis(2-nitrobenzoic acid). DTNB in various pH buffers and allows comparison of the kinetic rates of reducing agents. […] Max Abs412 was measured and then utilized to calculate the activity concentration.
The kinetics of disulfide bond reduction can be quantitative measured using 5,5′-dithiobis-(2-nitrobenzoic acid) (DTNB or Ellman's Reagent). DTNB contains an internal disulfide bond, which when reduced, gives rise to two molecules of TNB that can be monitored by […] at 412 nm.

Muc5B = Muc5B (Homo sapiens, UniProt Q9HC84); experiment: Mucin agarose gel western blot: Muc5B reduction in saliva; details: 30 minute incubation, FIG. 4; for concentration producing Muc5B (mucin) reduction by downward gel shift: pH 6.5, agarose gel/western blot
Protocol: Analysis of Muc5B reduction by western blot. Saliva was incubated with reducing agents at indicated concentrations for 30 min prior to agarose gel electrophoresis/western blot visualization of unreduced and reduced Muc5B. Both saliva and compounds were buffered to pH 6.5.
Quantitation of Muc5B reduction by western blot.
Saliva samples were aliquoted and incubated with the indicated concentrations of reducing agents (FIG. 4). After a 30 minute incubation, the reducing agents were quenched by the addition of a 10-fold molar excess of N-ethylmaliamide (NEM). The mucus samples were separated by agarose gel electrophoresis and analyzed by western blot.

Balb-C mice = experiment: BALF cellularity after pulmonary aspiration in Balb-C mice; format: in vivo; details: pulmonary aspiration (40 ul deposited dose), BALF at 4 and 24 hours post administration, all concentrations tested, FIG. 9
Protocol: FIG. 9. Balb-C mice were administered Compound Ib at the indicated concentrations via pulmonary aspiration (40 ul deposited dose). Bronchoalveolar lavage fluid (BALF) was collected at 4 and 24 hours post administration and the total cellularity of the BALF was determined.

[2] = Hydrogen peroxide incubation (oxygen free radical scavenging), read out by DTNB reduction; format: biochemical; details: excess hydrogen peroxide, 60 second incubation; FIG. 10
Protocol: FIG. 10. Compound Ib was incubated with excess hydrogen peroxide to assess the ability of Compound Ib to scavenge oxygen free radicals. Following a 60 second incubation with hydrogen peroxide, the activity of Compound Ib was determined by its ability to reduce DTNB (Ellman's Reagent).

[3] = Elimination of inhaled 14C-labeled NAC from the lungs in animal studies; format: in vivo; details: inhaled or intranasal, 14C-labeled NAC administered by inhalation, animal studies (unpublished observation)
Description: NAC, as a topical pulmonary therapeutic agent, is not optimal for the reduction of mucin disulfide bonds. […] For example, in the pH environment of the airway surface (measured in the range of pH 6.0 to 7.2 in CF and COPD airways), NAC exists only partially in its reactive state as a negatively charge thiolate (Jayaraman S, Song Y, Vetrivel L, Shankar L, Verkman A S. Noninvasive in vivo fluorescence measurement of airway-surface liquid depth, salt concentration, and pH. J Clin Invest. 2001; 107(3):317-24) (FIG. 3). […] The relatively low reducing activity at of NAC physiologic airway pH and a the short half-life of NAC on the lung surface provide an explanation for the lack of strong clinical evidence for effective mucus reduction in mucus obstructive diseases.

Row | SMILES | DTNB reducing kinetics as a function of pH [1] | concentration producing Muc5B (mucin) reduction by downward gel shift (Muc5B) [mM] | reducing kinetic for DTNB reduction compared with NAC and DTT [1] | DTNB reduction kinetics as a function of reducing agent to DTNB ratio ([1]; increasing concentrations of reducing agent, fixed concentration of DTNB and pH (7.0), FIG. 2) | total cellularity of the BALF compared to vehicle (Balb-C mice) | activity (ability to reduce DTNB) after incubation with hydrogen peroxide [2] | potency of mucus (Muc5B) reduction relative to NAC and DTT (Muc5B) | half-life [3] [min]
1 | O[C@H](CS)[C@H](O)CS (racemic) [DTT, dithiothreitol, reference compound] | pH-dependent increase in DTNB reduction | ≥ 3 |  |  |  |  |  | 
2 | O=C(O)CCP(CCC(=O)O)CCC(=O)O [Compound Ib, 3,3′,3″-phosphinetriyltripropanoic acid] | pH-dependent increase in reducing activity | ≥ 1 | faster reducing kinetic | fastest reduction kinetics at all ratios of reducing agent to DTNB substrate | did not increase BALF cellularity compared to the vehicle | decreased the activity | more potent | 
3 | NCCP(c1ccccc1)c1ccccc1 [If, 2-(diphenylphosphino)ethanamine] | fastest reducing kinetic tested |  | faster reducing kinetic |  |  |  |  | 
4 | CC(=O)N[C@@H](CS)C(=O)O [NAC, N-acetyl cysteine, reference compound] | pH-dependent increase in DTNB reduction | > 100 |  |  |  |  |  | ~20
